Assay results reported in the supplement of paper PMC10307832.

What was measured:
Assay in all cases: relative viability (nuclei count vs DMSO), 5 days (fraction); higher = more cells survive
Ponatinib + OSI-027 = compound: Cc1ccc(C(=O)Nc2ccc(CN3CCN(C)CC3)c(C(F)(F)F)c2)cc1C#Cc1cnc2cccnn12 [Ponatinib] + COc1cccc2cc(-c3nc([C@H]4CC[C@H](C(=O)O)CC4)n4ncnc(N)c34)[nH]c12 [OSI-027] (partner 0.5 µM)
Procedure, shortened: (§1)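 Lung cancer cell lines were seeded in 1536-well plates and dosed by pin tool the next day, with either a single drug or a fixed anchor-drug dose combined with five library-drug doses (not always all listed) spaced in √10 steps. Five days later, one step fixed the cells and stained their nuclei (final 0.05% Triton X-100, 1% formaldehyde, 1 ug/ml Hoechst), and nuclei were counted on 4× images. Relative viability is the nuclei count in treated wells divided by the count in vehicle wells, and each value is the median of duplicate plates.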

Pazopanib + OSI-027 = compound: Cc1ccc(Nc2nccc(N(C)c3ccc4c(C)n(C)nc4c3)n2)cc1S(N)(=O)=O [Pazopanib] + COc1cccc2cc(-c3nc([C@H]4CC[C@H](C(=O)O)CC4)n4ncnc(N)c34)[nH]c12 [OSI-027] (partner 0.5 µM)
Procedure, shortened: as §1

Pazopanib + Pictilisib = compound: Cc1ccc(Nc2nccc(N(C)c3ccc4c(C)n(C)nc4c3)n2)cc1S(N)(=O)=O [Pazopanib] + CS(=O)(=O)N1CCN(Cc2cc3nc(-c4cccc5[nH]ncc45)nc(N4CCOCC4)c3s2)CC1 [Pictilisib] (partner 1 µM)
Procedure, shortened: as §1

Pazopanib + Navitoclax = compound: Cc1ccc(Nc2nccc(N(C)c3ccc4c(C)n(C)nc4c3)n2)cc1S(N)(=O)=O [Pazopanib] + CC1(C)CCC(c2ccc(Cl)cc2)=C(CN2CCN(c3ccc(C(=O)NS(=O)(=O)c4ccc(N[C@H](CCN5CCOCC5)CSc5ccccc5)c(S(=O)(=O)C(F)(F)F)c4)cc3)CC2)C1 [Navitoclax] (partner 0.5 µM)
Procedure, shortened: as §1

Q: UMC-11 was tested. Which relative viability (Ponatinib + OSI-027; first compound 0.002 µM) did it give?
A: 0.47

Q: What about the relative viability (Ponatinib + OSI-027; first compound 0.006325 µM) of the same cell line?
A: 0.49

Q: What about the relative viability (Ponatinib + OSI-027; first compound 0.06325 µM) of the same cell line?
A: 0.555

Q: What about the relative viability (Ponatinib + OSI-027; first compound 0.2 µM) of the same cell line?
A: 0.525

Q: And the relative viability (Pazopanib + OSI-027; first compound 0.01 µM)?
A: 0.501

Q: And the relative viability (Pazopanib + OSI-027; first compound 0.03162 µM)?
A: 0.544

Q: What about the relative viability (Pazopanib + OSI-027; first compound 0.1 µM) of the same cell line?
A: 0.442

Q: What about the relative viability (Pazopanib + OSI-027; first compound 0.3162 µM) of the same cell line?
A: 0.504

Q: And the relative viability (Pazopanib + OSI-027; first compound 1 µM)?
A: 0.541

Q: And the relative viability (Pazopanib + Pictilisib; first compound 0.01 µM)?
A: 0.724

Q: And the relative viability (Pazopanib + Pictilisib; first compound 0.03162 µM)?
A: 0.879

Q: What about the relative viability (Pazopanib + Pictilisib; first compound 0.1 µM) of the same cell line?
A: 0.787

Q: And the relative viability (Pazopanib + Pictilisib; first compound 0.3162 µM)?
A: 0.928

Q: What about the relative viability (Pazopanib + Pictilisib; first compound 1 µM) of the same cell line?
A: 1.13

Q: And the relative viability (Pazopanib + Navitoclax; first compound 0.01 µM)?
A: 0.318

Q: What about the relative viability (Pazopanib + Navitoclax; first compound 0.03162 µM) of the same cell line?
A: 0.312

Q: And the relative viability (Pazopanib + Navitoclax; first compound 0.1 µM)?
A: 0.303

Q: What about the relative viability (Pazopanib + Navitoclax; first compound 0.3162 µM) of the same cell line?
A: 0.268

Q: What about the relative viability (Pazopanib + Navitoclax; first compound 1 µM) of the same cell line?
A: 0.348
